Assay [1] deals with CCl4 -induced hepatopath rats. The assay can be described thus: Hepatopathy improving effects for CCl4-induced hepatopath rats (inhibition to the increase of transaminase in serum). The class given is in vivo. The following applies: SD male rats, 100 mg/kg oral, 30 min before CCl4 (diluted fourfold with olive oil, peritoneally, 4 mg/kg), blood after 24 hours; for Serum GPT: Control 1 (no CCl4) 20, Control 2 (CCl4 alone) 1071; for Serum GOT: Control 1 (no CCl4) 89, Control 2 (CCl4 alone) 7719. The procedure:
The hepatopathy improving effects of the compounds (I') of this invention for CCl4 -induced hepatopath rats were investigated by using, as an index, the inhibition to the increase of transaminase in serum. After SD male rats (7 weeks old; Japanese Charles River) had been fasted for 24 hours, test drugs were orally administered at 100 mg/kg. Thirty minutes later, a CCl4 solution (diluted fourfold with olive oil) was peritoneally administered at 4 mg/kg. The rats were fasted further for 24 hours and then anesthetized with 1 ml/kg of sodium pentobarbital. After a blood sample was collected from the descending abdominal aorta of each rat, the liver was enucleated and its wet weight was measured. Further, the GOT and GPT of a serum, which had been obtained from the blood sample so collected, were measured by an automatic chemical analyzer ("TBA-380", trade name; manufactured by Toshiba Corp.). Thick serums were measured after dilution in distilled water.
Note: Control 1 is a group not administered with CCl4 while Control
is a group administered with CCl4 alone.

For a further assay, the system named is hepatopath. The following applies: previously found by the present assignee; cited from earlier work.

Consider 7 compounds from US5227398A, “Benzodioxole derivatives and hepatopathy improvers comprising the same” (Tsumura & Co., priority 1990, dated 1993).

Counter-ions that a name gives are not always drawn.

Take `CSCC(N)C(=O)Nc1ccc2c(c1)OCO2` (stereo not shown) [Example 5, [(3,4-methylenedioxy)aniline]-S-methylcysteinamide hydrochloride]: in assay [1], the “Serum GPT” value stood at 57 U/1 and the “Serum GOT” value came to 391 U/1. Taken in the same sequence, the figures for `CC(C)OC(=O)C(=C1SC=CS1)c1ccc2c(c1)OCO2` [Example 3, isopropyl 2-(1,3-dithiol-2-ylidene)-2-[3,4-(methylenedioxy)phenyl]acetate] were 557 U/1 and 2573 U/1. Taken in the same sequence, the figures for `COC(=O)CNc1ccc2c(c1)OCO2` [Synthesis Example 2, methyl 2-[N-(3,4-methylenedioxyphenyl)amino]acetate] were 310 U/1 and 1400 U/1. Regarding `c1csc(=Nc2ccc3c(c2)OCO3)s1` [Example 1, N,N-(1,3-dithiol-2-ylidene)-1,3-benzodioxol-5-amine], in assay [1], the “Serum GPT” value was 74 U/1 and the “Serum GOT” value worked out at 432 U/1. In the same order, the values of `CSC(=S)Nc1ccc2c(c1)OCO2` [Synthesis Example 1, methyl N-(3,4-methylenedioxyphenyl)dithiocarbamate] are 230 U/1 and 1027 U/1. In the same order, the values of `CC(C)OC(=O)C(C(=O)c1ccc2c(c1)OCO2)=C1SC=CS1` [Example 2, isopropyl 2-(1,3-dithiol-2-ylidene)-3-[3,4-(methylenedioxy)phenyl]-3-oxopropionate] are 100 U/1 and 563 U/1. `COc1cc2c(c(OC)c1OC)-c1c(cc3c(c1OC)OCO3)CC(C)C(C)(O)C2` (stereo not shown) [gomisin A]: the “improvement of GPT and GOT value of a hepatopath” value in the assay with hepatopath was “can promptly improve the GPT and GOT value of a hepatopath”.
